From US20050054585A1, “Agent controlling the production of osteoclast formation regulator and method of screening substance capable of controlling the production of osteoclast formation regulator” (priority 2001, published 2005)

Assays:
OPG = assay: Administration test in healthy volunteers, blood OPG by ELISA; assay type: in vivo, human; conditions: for production level of OPG in blood: 100 ml of 10% (w/v) solution orally after fasting, blood at six hours, ELISA
Procedure: Eighteen healthy volunteers, aged 35 to 50-years-old, were divided into three groups A, B, and C, consisting of three males and three females in each group. […] As a control solution, 1,000 ml of deionized water were sterilized with a membrane filter. These test and control solutions were stored at about 10° C. in a refrigerator until initiating the test. The volunteers in the groups A to C were allowed to fast, except for water, from 10 p.m. at night just before initiating the test, and 100 ml aliquots of the test solution 1, the test solution 2, and the control solution were administered to the groups A, B, and C, respectively, at 6 a.m. on the next day. Thereafter, all the volunteers were allowed to stay indoors calmly and sampled their blood at six hours after the administrations. The sampled bloods were centrifuged at […] for 10 min and quantified for OPG with “RS000805”, a product code number for ELISA system for assaying OPG commercialized by Funakoshi Co., Ltd., Tokyo. Japan.

[1] = tested on: OPG production in FHs 74 Int cells, ATCC CCL 241; assay: Production of OPG in FHs 74 Int cell culture supernatant, Western Blotting; assay type: cell-based, human; conditions: 2-day culture with saccharide (1 mg/ml; α,α-trehalose 1, 0.2, 0.04 mg/ml), control without saccharide = 100
Procedure: FHs 74 Int cells, ATCC CCL 241, were inoculated to 96-well plates, with D-MEM medium prepared by adding fetal calf serum, commercialized by GIBCO Bethesda Research Laboratories, Bethesda, Md., USA, to the serum-free culture medium shown in Table 1 below to give a final concentration of 10% (v/v), a final cell density of 1.2×10^4 cells/well, and a final volume of 200 μl; and incubated at 37° C. for 48 hours in a 5% CO2 (V/V) incubator. After completion of the culture, the resultant cells were washed thrice (200 μl×3) with the serum-free D-MEM medium in Table 1. […] Two hundred microliters of each of the saccharide solutions of Nos.1 to 7 were placed in each well of the 96-well plates with the cells, and the cells were incubated at 37 C for two days in a 5% CO2 (v/v) incubator. The culture supernatant in each well was sampled and assayed for the production level of OPG by the Western Blotting method as indicated below using a recombinant human OPG commercialized by R & D Systems Inc., MN, USA. In parallel, a cell culture system with no saccharide, as a control group, was provided and cultured, and the supernatant of the cell culture was sampled on day 2 after the initiation of the cell culture and assayed for the production level of OPG similarly as in the test group.
Fifteen microliters of any of the cell culture supernatants of the test solutions and the control solution, and five microliters of dithiothreitol (DTT) solution for cell treatment were mixed and heated at 99° C. for five minutes. Each of the resulting solutions with heat treatment was developed on SDS-polyacrylamide gel electrophoresis (SDS-PAGE) using multi-gel 4/20 commercialized by Daiichi Pure Chemicals Co., Ltd., Tokyo, Japan; and the gels were transferred to PVDF membranes commercialized by Nihon Millipore Corporation, Tokyo, Japan. The resulting PVDF membranes were blocked with a solution of “BLOCK ACE™”, commercialized by Dainippon Pharmaceutical Co., Ltd., Tokyo, Japan, and contacted with an anti-human OPG antibody as a primary antibody, commercialized by R & D Systems, MN, USA, and an HRP anti-goat IgG antibody, as a secondary antibody, commercialized by Sigma Chemical Co., MO, USA; followed by detecting proteins reacted with these antibodies in accordance with the method described in Experimental Medicine, special edition, titled Handbook for novel recombinant technology, pp. 222-226 (1999). The coloration was effected by using ECL reagent, commercialized by Amersham Pharmacia Biotechnology, IL, USA; exposing “[sequence] ECL™”; and measuring the expression intensity by using “IMAGE MASTER™”, commercialized by Amersham Biosciences, Tokyo, Japan.

[2] = tested on: OPG production in MG-63 cells, ATCC CRL 1427; assay: Screening for control of the production of OPG in MG-63 cells; assay type: cell-based, human; conditions: saccharide solutions Nos. 1 to 7, 2-day culture
ddy mice = conditions: 15 g/kg body weight, by syringe or intubationally with stomach sonde, observed seven days
Procedure: Either of the sterilized saccharide solutions was administered with a syringe or intubationally administered with a stomach sonde to five groups of ddy mice, having 20 to 25 g body weight, consisting of five heads in each group. The mice were observed their conditions for seven days.

Compound | production level of OPG in blood (OPG; healthy volunteers) | complaints of abnormality after administration (OPG; human, in vivo, po) | expression intensity of OPG versus control cell culture system [1] | production of OPG compared with a control culture system free of saccharide [2] | mortality (ddy mice) | complaints of abnormality after administration (OPG; healthy volunteers, 100 ml of 10% (w/v) solution orally)
O=C[C@H](O)[C@@H](O)[C@H](O)[C@H](O)CO [D-glucose] | significantly lower production level of OPG than that of the group C with the control solution | no volunteer | lower than that for the control cell culture system | remarkably inhibited the production of OPG | no mouse died | 
OC[C@H]1O[C@H](O[C@H]2O[C@H](CO)[C@@H](O)[C@H](O)[C@H]2O)[C@H](O)[C@@H](O)[C@@H]1O [α,α-trehalose] | significantly higher than those with the test solution 2 and the control solution |  | higher than that for the control cell culture system | distinctly enhanced the production of OPG | no mouse died | no volunteer
OC[C@H]1O[C@H](O[C@H]2[C@H](O)[C@@H](O)C(O)O[C@@H]2CO)[C@H](O)[C@@H](O)[C@@H]1O (mixture of isomers) [maltose] |  |  | lower than that for the control cell culture system | remarkably inhibited the production of OPG |  | 
OC[C@H]1O[C@@](CO)(O[C@H]2O[C@H](CO)[C@@H](O)[C@H](O)[C@H]2O)[C@@H](O)[C@@H]1O [sucrose] |  |  | lower than that for the control cell culture system | remarkably inhibited the production of OPG | no mouse died | 
